Results taken from PMC3260308, “Substrate Specificity within a Family of Outer Membrane Carboxylate Channels” (PLoS Biology, 2012).
Like-named read-outs stand apart in the source and are kept apart here.

What was measured:
OccD1 (formerly OprD) [1] = target: T1, OccD1 (formerly OprD) (Pseudomonas aeruginosa, UniProt P32722); test: competition of arginine uptake in membrane vesicles; liposome swelling; assay type: biochemical; conditions: 10-fold excess over 0.25 uM 14C-arginine, pH 7.0, 25 C; uptake confirmed by liposome swelling
T1 construct: pB22, N-terminal hexa-histidine tag kept in vesicles; expressed in porin-deficient E. coli BL21 omp8; total membrane vesicles (purified protein for liposome swelling)

OccK2 = target: T2, OccK2 (Pseudomonas aeruginosa, UniProt Q9I6P8); test: competition of radiolabelled uptake in total membrane vesicles; assay type: biochemical; conditions: vs 0.5 uM 3H-glucuronate, 5 uM unlabelled compound, 10 mM HEPES pH 7.0, 25 C, 10 min
T2 construct: gene PA0240; pB22, N-terminal hexa-histidine tag; expressed in E. coli BL21 omp8, total membrane vesicles
T2 sequence (Q9I6P8 25-421): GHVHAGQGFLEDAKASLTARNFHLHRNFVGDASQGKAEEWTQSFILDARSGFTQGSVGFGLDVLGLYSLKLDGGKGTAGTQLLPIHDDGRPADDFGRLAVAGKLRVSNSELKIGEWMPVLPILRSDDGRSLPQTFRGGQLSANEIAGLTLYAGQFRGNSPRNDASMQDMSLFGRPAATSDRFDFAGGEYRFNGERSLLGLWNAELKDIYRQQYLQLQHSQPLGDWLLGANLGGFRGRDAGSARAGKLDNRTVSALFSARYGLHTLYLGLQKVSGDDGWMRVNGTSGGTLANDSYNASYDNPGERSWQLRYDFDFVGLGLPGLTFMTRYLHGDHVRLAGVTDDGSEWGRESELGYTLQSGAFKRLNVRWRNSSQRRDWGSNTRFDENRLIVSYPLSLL
Text: competition of radiolabelled uptake in total membrane vesicles on OccK2

OccK7 = target: T3, OccK7 (Pseudomonas aeruginosa, UniProt Q9I4U9); test: competition of benzoate uptake in membrane vesicles; assay type: biochemical; conditions: 10-fold excess over radiolabelled benzoate, pH 7.0
T3 construct: gene PA1025; pB22, N-terminal hexa-histidine tag; expressed in E. coli BL21 omp8, total membrane vesicles
T3 sequence (Q9I4U9 23-416): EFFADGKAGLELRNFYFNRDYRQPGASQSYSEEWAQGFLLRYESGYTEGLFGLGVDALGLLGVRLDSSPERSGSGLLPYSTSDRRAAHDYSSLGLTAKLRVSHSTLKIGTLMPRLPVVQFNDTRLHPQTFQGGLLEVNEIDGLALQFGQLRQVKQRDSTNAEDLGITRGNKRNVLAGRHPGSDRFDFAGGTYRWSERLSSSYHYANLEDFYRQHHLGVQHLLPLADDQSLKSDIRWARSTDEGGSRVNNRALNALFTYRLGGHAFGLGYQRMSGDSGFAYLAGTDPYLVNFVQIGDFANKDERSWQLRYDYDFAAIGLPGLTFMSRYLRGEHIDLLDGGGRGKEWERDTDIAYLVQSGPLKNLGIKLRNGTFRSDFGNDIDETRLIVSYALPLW

OccD1 (formerly OprD) [2] = target: T1, OccD1 (formerly OprD); test: competition of arginine uptake in membrane vesicles; assay type: biochemical; conditions: 10-fold excess over 0.25 uM 14C-arginine, pH 7.0, 25 C
OccK1 (formerly OpdK) = target: T4, OccK1 (formerly OpdK) (Pseudomonas aeruginosa, UniProt Q9HUR5); test: competition of radiolabelled uptake in total membrane vesicles; assay type: biochemical; conditions: vs 0.5 uM 3H-benzoate, 5 uM unlabelled compound, 10 mM HEPES pH 7.0, 25 C, 10 min
T4 construct: pB22, N-terminal hexa-histidine tag; expressed in E. coli BL21 omp8, total membrane vesicles; purified protein for crystals
T4 sequence (Q9HUR5 28-417): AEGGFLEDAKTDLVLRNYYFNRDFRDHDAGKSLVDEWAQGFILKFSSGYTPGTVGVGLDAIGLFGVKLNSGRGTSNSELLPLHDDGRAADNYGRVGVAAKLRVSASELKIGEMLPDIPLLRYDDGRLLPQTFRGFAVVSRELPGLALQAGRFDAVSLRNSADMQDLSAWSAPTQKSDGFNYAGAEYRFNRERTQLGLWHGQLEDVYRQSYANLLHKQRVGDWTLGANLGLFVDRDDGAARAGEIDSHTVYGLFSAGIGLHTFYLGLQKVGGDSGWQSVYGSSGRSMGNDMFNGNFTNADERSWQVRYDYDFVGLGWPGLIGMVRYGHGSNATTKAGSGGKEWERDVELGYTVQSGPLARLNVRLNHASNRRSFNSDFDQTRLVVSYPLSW
Text: competition of radiolabelled uptake in total membrane vesicles on OccK1 (formerly OpdK)

OccD1 (formerly OprD) [3] = target: T1, OccD1 (formerly OprD); assay type: biochemical; conditions: vs 0.25 uM 14C-arginine, 2.5 uM unlabelled compound, 10 mM HEPES pH 7.0, 25 C, 15 min
Text: competition of radiolabelled uptake in total membrane vesicles on OccD1 (formerly OprD)

OccD2 (formerly OpdC) = target: T5, OccD2 (formerly OpdC) (Pseudomonas aeruginosa, UniProt Q9I6X0); test: radiolabelled uptake in total membrane vesicles; assay type: biochemical; conditions: 0.25 uM 14C-arginine, 15 min, 10 mM HEPES pH 7.0, 25 C; labelled compound
T5 construct: pB22, N-terminal hexa-histidine tag; expressed in E. coli BL21 omp8, total membrane vesicles
T5 sequence (Q9I6X0 23-444): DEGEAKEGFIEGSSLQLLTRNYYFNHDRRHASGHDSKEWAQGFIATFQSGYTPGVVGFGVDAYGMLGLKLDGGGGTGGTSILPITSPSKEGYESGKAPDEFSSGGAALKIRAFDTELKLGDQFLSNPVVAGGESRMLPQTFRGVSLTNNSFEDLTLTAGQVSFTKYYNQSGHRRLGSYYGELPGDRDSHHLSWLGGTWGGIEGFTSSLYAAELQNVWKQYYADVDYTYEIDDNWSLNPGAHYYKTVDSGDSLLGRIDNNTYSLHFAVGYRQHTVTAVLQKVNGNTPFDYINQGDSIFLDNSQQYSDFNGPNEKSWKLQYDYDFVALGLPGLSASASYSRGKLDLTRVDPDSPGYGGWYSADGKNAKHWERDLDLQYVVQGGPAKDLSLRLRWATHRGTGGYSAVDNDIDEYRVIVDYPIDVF

OccD3 (formerly OpdP) = target: T6, OccD3 (formerly OpdP) (Pseudomonas aeruginosa, UniProt Q9HVS0); test: radiolabelled uptake in total membrane vesicles; assay type: biochemical; conditions: 0.25 uM 14C-arginine, 15 min, 10 mM HEPES pH 7.0, 25 C; labelled compound
T6 construct: pB22, N-terminal hexa-histidine tag; expressed in E. coli BL21 omp8, total membrane vesicles
T6 sequence (Q9HVS0 26-484): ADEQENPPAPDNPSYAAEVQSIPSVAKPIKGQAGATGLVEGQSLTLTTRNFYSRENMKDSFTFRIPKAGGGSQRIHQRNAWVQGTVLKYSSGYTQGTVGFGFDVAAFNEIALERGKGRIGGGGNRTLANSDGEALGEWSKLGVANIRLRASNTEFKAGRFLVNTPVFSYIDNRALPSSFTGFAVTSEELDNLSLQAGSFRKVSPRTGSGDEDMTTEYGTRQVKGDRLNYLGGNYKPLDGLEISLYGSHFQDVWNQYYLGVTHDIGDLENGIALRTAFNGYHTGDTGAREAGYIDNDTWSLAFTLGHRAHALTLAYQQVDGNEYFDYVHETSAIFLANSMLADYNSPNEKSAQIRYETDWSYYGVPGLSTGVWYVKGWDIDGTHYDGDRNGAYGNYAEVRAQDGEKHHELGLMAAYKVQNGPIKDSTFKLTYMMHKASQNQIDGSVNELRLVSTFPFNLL

OccK3 [4] = target: T7, OccK3 (Pseudomonas aeruginosa, UniProt Q9I202); test: competition of pyroglutamate uptake in membrane vesicles; liposome swelling; assay type: biochemical; conditions: 10-fold excess over radiolabelled pyroglutamate, pH 7.0; uptake confirmed by liposome swelling
T7 construct: gene opdO; pB22, N-terminal hexa-histidine tag; expressed in E. coli BL21 omp8, total membrane vesicles; purified protein for liposome swelling
T7 sequence (Q9I202 26-409): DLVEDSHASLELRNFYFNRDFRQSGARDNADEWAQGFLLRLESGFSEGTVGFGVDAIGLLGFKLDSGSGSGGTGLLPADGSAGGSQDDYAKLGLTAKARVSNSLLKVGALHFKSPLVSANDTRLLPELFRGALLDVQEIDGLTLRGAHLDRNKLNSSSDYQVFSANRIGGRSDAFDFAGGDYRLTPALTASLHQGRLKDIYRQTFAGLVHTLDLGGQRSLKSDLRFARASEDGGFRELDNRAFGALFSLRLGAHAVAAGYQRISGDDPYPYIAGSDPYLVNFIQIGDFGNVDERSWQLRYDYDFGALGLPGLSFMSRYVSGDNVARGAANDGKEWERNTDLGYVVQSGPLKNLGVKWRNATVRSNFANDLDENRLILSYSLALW

OccK4 = target: T8, OccK4 (Pseudomonas aeruginosa, UniProt Q9HWP4); test: radiolabelled uptake in total membrane vesicles; assay type: biochemical; conditions: 10 uM 14C-phenylacetate, 45 min; very low specific activity; labelled compound
T8 construct: gene PA4137; pB22, N-terminal hexa-histidine tag; expressed in E. coli BL21 omp8, total membrane vesicles

OccK3 [5] = target: T7, OccK3; test: radiolabelled uptake in total membrane vesicles; assay type: biochemical; conditions: 0.5 uM 3H-pyroglutamate, 15 min, 10 mM HEPES pH 7.0, 25 C; labelled compound
OccD1 (P. aeruginosa) = OccD1 (P. aeruginosa) (UniProt P32722)
OccD1 (P. aeruginosa), sequence (P32722 24-443): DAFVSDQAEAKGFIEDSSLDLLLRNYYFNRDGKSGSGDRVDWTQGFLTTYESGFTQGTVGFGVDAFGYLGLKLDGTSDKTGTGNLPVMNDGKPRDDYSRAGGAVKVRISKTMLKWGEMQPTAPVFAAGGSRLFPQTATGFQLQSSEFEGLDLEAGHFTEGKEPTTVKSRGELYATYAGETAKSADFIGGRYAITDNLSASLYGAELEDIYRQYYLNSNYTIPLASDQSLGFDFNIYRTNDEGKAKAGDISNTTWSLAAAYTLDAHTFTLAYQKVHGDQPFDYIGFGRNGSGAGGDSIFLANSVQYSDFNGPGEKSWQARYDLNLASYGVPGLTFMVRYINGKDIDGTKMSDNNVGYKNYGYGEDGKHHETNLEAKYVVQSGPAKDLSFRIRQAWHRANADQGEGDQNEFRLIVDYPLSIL

T1 sequence (P32722 24-443): as above
T8 sequence (Q9HWP4 entry or part of it): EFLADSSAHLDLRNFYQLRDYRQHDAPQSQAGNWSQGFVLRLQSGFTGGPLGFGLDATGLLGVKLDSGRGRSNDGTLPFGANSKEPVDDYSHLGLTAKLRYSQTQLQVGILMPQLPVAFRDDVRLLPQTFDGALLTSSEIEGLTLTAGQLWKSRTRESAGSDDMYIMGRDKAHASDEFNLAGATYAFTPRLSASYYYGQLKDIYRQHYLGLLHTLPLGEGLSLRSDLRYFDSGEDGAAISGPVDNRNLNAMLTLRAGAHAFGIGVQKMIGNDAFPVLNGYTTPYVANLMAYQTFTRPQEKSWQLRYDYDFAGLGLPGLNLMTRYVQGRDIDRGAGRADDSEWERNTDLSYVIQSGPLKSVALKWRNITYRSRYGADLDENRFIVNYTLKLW

Question: `C[C@@H](O)[C@H]1C(=O)N2C(C(=O)O)=C(SCCN=CN)C[C@H]12` [imipenem] was tested. Which “% uptake remaining in 10-fold excess” value (OccD1 (formerly OprD) [1]) did it give?
Answer: Its value is “For OccD1, inhibition of arginine uptake is caused only by imipenem and meropenem”.

Question: Which “% radiolabelled uptake remaining” value (OccK2; self-competition) does the source give for `O=C(O)[C@H]1OC(O)[C@H](O)[C@@H](O)[C@@H]1O` (some centres unmarked) [glucuronate] here?
Answer: The value was 3±3%.

Question: What does the source list for `C[C@@H](O)[C@H]1C(=O)N2C(C(=O)O)=C(S[C@@H]3CN[C@H](C(=O)N(C)C)C3)[C@H](C)[C@H]12` [meropenem]?
Answer: % uptake remaining in 10-fold excess (OccK7): OccK7-mediated transport is lowered very efficiently by meropenem; % uptake remaining in 10-fold excess (OccD1 (formerly OprD) [2]): For OccD1, inhibition of arginine uptake is caused only by imipenem and meropenem

Question: How did the OccK1 (OccK1 (formerly OpdK)) turn out when `O=C(O)c1ccc([N+](=O)[O-])cc1` [4-nitrobenzoate] was run?
Answer: Its OccK1 is 16±3%.

Question: For `NCCCC[C@H](N)C(=O)O` [Lysine], which OccD1 (OccD1 (formerly OprD) [3]) is on record?
Answer: Its OccD1 is 3±1%.

Question: Which results are given for `N=C(N)NCCC[C@H](N)C(=O)O` [Arginine]?
Answer: OccD1 (OccD1 (formerly OprD) [3]; self-competition): 2±1%; radiolabelled uptake in total membrane vesicles (OccD2 (formerly OpdC)): OccD2 and OccD3, while efficient in arginine uptake; radiolabelled uptake in total membrane vesicles (OccD3 (formerly OpdP)): The efficient arginine uptake mediated by OccD3 is noteworthy

Question: For `NCCC[C@H](N)C(=O)O` [Ornithine], which OccD1 (OccD1 (formerly OprD) [3]) is on record?
Answer: The OccD1 was 1±2%.

Question: For `N[C@@H](Cc1cnc[nH]1)C(=O)O` [Histidine], which OccD1 (OccD1 (formerly OprD) [3]) is on record?
Answer: Its OccD1 is 12±2%.

Question: How did the “% uptake remaining in 10-fold excess” value (OccK3 [4]) turn out when `CO/N=C(\C(=O)N[C@@H]1C(=O)N2C(C(=O)O)=C(COC(C)=O)CS[C@H]12)c1csc(N)n1` [cefotaxime] was run?
Answer: Its value is “OccK3-mediated transport is affected only with the cephalosporin cefotaxime”.

Question: `O=C(O)Cc1ccccc1` [phenylacetate] was tested. Which “radiolabelled uptake in total membrane vesicles” value (OccK4) did it give?
Answer: The value was “OccK4 was indeed the most efficient phenylacetate uptake channel of the proteins tested”.

Question: How did the OccK1 (OccK1 (formerly OpdK)) turn out when `CCCCCC(=O)O` [caproate] was run?
Answer: The OccK1 was 20±5%.

Question: `O=C1CC[C@@H](C(=O)O)N1` [pyroglutamate] was tested. Which OccK2 (OccK2) did it give?
Answer: The OccK2 was 25±2%.

Question: And the OccK1 (OccK1 (formerly OpdK))?
Answer: Its OccK1 is 15±1%.

Question: What about the “radiolabelled uptake in total membrane vesicles” value (OccK3 [5]) of the same compound?
Answer: Its value is “the channel that is most efficient in pyroglutamate uptake (OccK3)”.

Question: With Arg-Arg dipeptide as the compound, how does the uptake of radiolabeled arginine by OccD1 in E. coli BL21 omp8 total membrane vesicles in the presence of a 10-fold excess of the unlabeled compound, as a percentage of uptake without it (OccD1 (P. aeruginosa)) read?
Answer: The uptake of radiolabeled arginine by OccD1 in E. coli BL21 omp8 total membrane vesicles in the presence of a 10-fold excess of the unlabeled compound, as a percentage of uptake without it was 40%.

Question: `O=C(O)c1ccccc1` [benzoate] was tested. Which OccK2 (OccK2) did it give?
Answer: The OccK2 was 20±6%.

Question: What about the OccK1 (OccK1 (formerly OpdK); self-competition, error printed as '+') of the same compound?
Answer: The OccK1 was 1+3.
